Patent US9512075B2 (OKAYAMA UNIVERSITY, priority 2012, dated 2016)
≈ marks a conversion by molar mass, not a printed value. Where two headings read alike, the source gives them in different places.

Legend:
Type in all cases: cell-based
[1] = tested on: Staphylococcus aureus Smith strain; assay: MIC for Staphylococcus aureus Smith strain; settings: read-out: MIC Straphyrococcus aureus Smith
[2] = tested on: Staphylococcus aureus 209P strain; assay: MIC for Staphylococcus aureus 209P strain; settings: Staphylococcus aureus, read-out: MIC Straphyrococcus aureus 209P
[3] = tested on: Staphylococcus aureus MRSA No. 17 (methicillin-resistant Staphylococcus aureus: MRSA); assay: MIC for Staphylococcus aureus MRSA No. 17; settings: read-out: MIC Straphyrococcus aureus MRSA No. 17 (MRSA)
[4] = tested on: Enterococcus faecalis 5038 strain; assay: MIC for Enterococcus faecalis 5038 strain; settings: read-out: MIC Enterococcus faecalis 5038
[5] = tested on: Enterococcus faecalis NCTC12201 strain (vancomycin-resistant Enterococcus: VRE); assay: MIC for Enterococcus faecalis NCTC12201 strain (VRE); settings: read-out: MIC Enterococcus faecalis NCTC 12201 (VRE)
[6] = tested on: Clostridium difficile JCM1296 strain; assay: microbe, parasite or virus in culture; settings: Clostridioides difficile, JCM1296, read-out: MIC Clostridium difficile JCM1296
[7] = tested on: Clostridium perfringens PB6K strain; assay: microbe, parasite or virus in culture; settings: Clostridium perfringens, PB6KSTRAIN, read-out: MIC Clostridium perfringens PB6K, PB6K strain; CD medium, 37° C. overnight, 10% CO2-containing anaerobic conditions
[8] = tested on: Escherichia coli K-12 strain; assay: MIC for Escherichia coli K-12 strain; settings: Escherichia coli, K12STRAIN, read-out: MIC Escherichia coli K12
[9] = tested on: Escherichia coli BE1121 strain; assay: MIC for Escherichia coli BE1121 strain; settings: Escherichia coli, BE1121STRAIN, read-out: MIC Escherichia coli BE1121
[10] = Smith strain, regular bouillon medium, 37° C. overnight, turbidity
[11] = 209P strain, regular bouillon medium, 37° C. overnight, turbidity
[12] = MRSA No. 17, regular bouillon medium, 37° C. overnight, turbidity
[13] = 5038 strain, Heart Infusion Broth medium, 37° C. overnight, turbidity
[14] = NCTC12201 strain (VRE), Heart Infusion Broth medium, 37° C. overnight, turbidity
[15] = K-12 strain, regular bouillon medium, 37° C. overnight, turbidity
[16] = BE1121 strain, regular bouillon medium, 37° C. overnight, turbidity

| Compound | MIC [1, 10] [µg/mL] | MIC [2, 11] [µg/mL] | MIC [3, 12] [µg/mL] | MIC [4, 13] [µg/mL] | MIC [5, 14] [µg/mL] | MIC [6] [µg/mL] | MIC [7] [µg/mL] | MIC [8, 15] [µg/mL] | MIC [9, 16] [µg/mL] | MIC ([2]; 209P) [µg/mL] | MIC [8] [µg/mL] | MIC [9] [µg/mL] | MIC [1] [µg/mL] | MIC ([3]; MRSA) [µg/mL] | MIC ([4]; 5038STRAIN) [µg/mL] | MIC [5] [µg/mL] |
| --- | --- | --- | --- | --- | --- | --- | --- | --- | --- | --- | --- | --- | --- | --- | --- | --- |
| CCCCCCCCCCOCC(O)=C1C(=O)N(C(=O)OC(C)(C)C)c2ccc(F)cc21 [A055, N-Boc-3-decyloxyacetyl-5-fluoro-2-oxyindole] | 128 (≈ 285 µM) | 128 (≈ 285 µM) | 128 (≈ 285 µM) | 128 (≈ 285 µM) | 128 (≈ 285 µM) | 0.25 (≈ 0.556 µM) | 2 (≈ 4.45 µM) | 256 (≈ 569 µM) | 256 (≈ 569 µM) | – | – | – | – | – | – | – |
| CCCCCCCCOCC(O)=C1C(=O)N(C(C)=O)c2ccccc21 [A057, N-acetyl-3-octyloxyacetyl-2-oxyindole] | 1 (≈ 2.89 µM) | 8 (≈ 23.2 µM) | 16 (≈ 46.3 µM) | 1 (≈ 2.89 µM) | 2 (≈ 5.79 µM) | 0.25 (≈ 0.724 µM) | 0.5 (≈ 1.45 µM) | 128 (≈ 371 µM) | 128 (≈ 371 µM) | – | – | – | – | – | – | – |
| CCCCCCCCOCC(O)=C1C(=O)N(C(=O)Nc2ccccc2)c2ccccc21 [A058, N-(phenylaminocarbonyl)-3-octyloxyacetyl-2-oxyindole] | 0.5 (≈ 1.18 µM) | 64 (≈ 151 µM) | 128 (≈ 303 µM) | 0.25 (≈ 0.592 µM) | 0.25 (≈ 0.592 µM) | < 0.125 | < 0.125 | 128 (≈ 303 µM) | 128 (≈ 303 µM) | – | – | – | – | – | – | – |
| CCCCCCCCC(O)=C1C(=O)N(C(=O)Nc2ccccc2)c2ccc(F)cc21 [A059, N-(phenylaminocarbonyl)-5-fluoro-3-nonanoyl-2-oxyindole] | 0.5 (≈ 1.22 µM) | – | 64 (≈ 156 µM) | 0.5 (≈ 1.22 µM) | 25 (≈ 60.9 µM) | 8 (≈ 19.5 µM) | 4 (≈ 9.74 µM) | – | – | 64 (≈ 156 µM) | 128 (≈ 312 µM) | 256 (≈ 624 µM) | – | – | – | – |
| CCCCCCCCCC(=O)N1C(=O)C(=C(O)c2ccc(Cl)cc2)c2ccccc21 [A060, N-decanoyl-3-(4-chlorobenzoyl)-2-oxyindole] | – | 64 (≈ 150 µM) | – | – | – | 0.5 (≈ 1.17 µM) | 1 (≈ 2.35 µM) | 128 (≈ 301 µM) | 128 (≈ 301 µM) | – | – | – | 1 (≈ 2.35 µM) | 16 (≈ 37.6 µM) | 1 (≈ 2.35 µM) | 1 (≈ 2.35 µM) |
| CCCCCCCCCC(=O)N1C(=O)C(=C(O)c2ccc(OC)cc2)c2ccccc21 [A062, N-decanoyl-3-(4-methoxybenzoyl)-2-oxyindole] | – | 128 (≈ 304 µM) | – | – | – | 4 (≈ 9.49 µM) | 8 (≈ 19 µM) | 256 (≈ 607 µM) | 256 (≈ 607 µM) | – | – | – | 2 (≈ 4.74 µM) | 16 (≈ 38 µM) | 2 (≈ 4.74 µM) | 2 (≈ 4.74 µM) |
| CCCCCCCCCC(=O)N1C(=O)C(=C(O)c2ccccc2O)c2ccccc21 [A063, N-decanoyl-3-(2-hydroxybenzoyl)-2-oxyindole] | – | 256 (≈ 628 µM) | – | – | – | 16 (≈ 39.3 µM) | 256 (≈ 628 µM) | 128 (≈ 314 µM) | 128 (≈ 314 µM) | – | – | – | 256 (≈ 628 µM) | 256 (≈ 628 µM) | 256 (≈ 628 µM) | 256 (≈ 628 µM) |
| CCCCCCCCCC(=O)c1c(O)c2ccc(OC)cc2oc1=O [B001, 3-decanoyl-4-hydroxy-7-methoxycoumarin] | 128 (≈ 369 µM) | 256 (≈ 739 µM) | 256 (≈ 739 µM) | 64 (≈ 185 µM) | 64 (≈ 185 µM) | 64 (≈ 185 µM) | 64 (≈ 185 µM) | 256 (≈ 739 µM) | 256 (≈ 739 µM) | – | – | – | – | – | – | – |
| CCCCC1CCC(C(=O)c2c(O)c3cc(F)ccc3oc2=O)CC1 (stereo not drawn) [B009, 3-(4-butylcyclohexylcarbonyl)-6-fluoro-4-hydroxycoumarin] | – | 1 (≈ 2.89 µM) | – | – | – | 0.25 (≈ 0.722 µM) | 1 (≈ 2.89 µM) | 256 (≈ 739 µM) | 4 (≈ 11.5 µM) | – | – | – | 0.5 (≈ 1.44 µM) | 1 (≈ 2.89 µM) | 0.5 (≈ 1.44 µM) | 0.5 (≈ 1.44 µM) |
| CCCCCCCCCC(=O)N[C@@H](C)C(=O)c1c(O)c2ccccc2oc1=O [B011, 3-(2-decanoylaminopropionyl)-4-hydroxycoumarin] | 256 (≈ 661 µM) | 256 (≈ 661 µM) | 256 (≈ 661 µM) | 256 (≈ 661 µM) | 256 (≈ 661 µM) | 2 (≈ 5.16 µM) | 1 (≈ 2.58 µM) | 256 (≈ 661 µM) | 256 (≈ 661 µM) | – | – | – | – | – | – | – |
| CCCCCCCCCC(=O)c1c(O)c2cc(C)ccc2oc1=O [B012, 3-decanoyl-6-methyl-4-hydroxycoumarin] | 0.5 (≈ 1.51 µM) | 0.5 (≈ 1.51 µM) | 0.5 (≈ 1.51 µM) | 0.25 (≈ 0.757 µM) | 0.25 (≈ 0.757 µM) | 0.25 (≈ 0.757 µM) | 0.5 (≈ 1.51 µM) | 256 (≈ 775 µM) | 256 (≈ 775 µM) | – | – | – | – | – | – | – |
| O=C(NCC(=O)c1c(O)c2ccccc2oc1=O)c1ccccc1 [B013, 3-benzoylaminoacetyl-4-hydroxycoumarin] | 256 (≈ 792 µM) | 256 (≈ 792 µM) | 256 (≈ 792 µM) | 256 (≈ 792 µM) | 256 (≈ 792 µM) | 128 (≈ 396 µM) | 128 (≈ 396 µM) | 256 (≈ 792 µM) | 256 (≈ 792 µM) | – | – | – | – | – | – | – |
| CCCCCCCCCCOCC(=O)c1c(O)c2ccccc2oc1=O [B015, 3-decyloxyacetyl-4-hydroxycoumarin] | – | – | – | – | – | 0.25 (≈ 0.694 µM) | 25 (≈ 69.4 µM) | – | – | 8 (≈ 22.2 µM) | 256 (≈ 710 µM) | 128 (≈ 355 µM) | 2 (≈ 5.55 µM) | 8 (≈ 22.2 µM) | 4 (≈ 11.1 µM) | 2 (≈ 5.55 µM) |
| CCCCCCCCCC(=O)NCC(=O)c1c(O)c2ccccc2oc1=O [B016, 3-decanoylaminoacetyl-4-hydroxycoumarin] | 256 (≈ 686 µM) | 256 (≈ 686 µM) | 256 (≈ 686 µM) | 256 (≈ 686 µM) | 256 (≈ 686 µM) | 8 (≈ 21.4 µM) | 16 (≈ 42.8 µM) | 256 (≈ 686 µM) | 256 (≈ 686 µM) | – | – | – | – | – | – | – |
| CCCCCCCCCCOC(C)C(=O)c1c(O)c2ccccc2oc1=O (stereo not drawn) [B017, 3-(2-decyloxypropionyl)-4-hydroxycoumarin] | – | 8 (≈ 21.4 µM) | – | – | – | < 0.125 | 0.25 (≈ 0.668 µM) | 256 (≈ 684 µM) | 256 (≈ 684 µM) | – | – | – | 2 (≈ 5.34 µM) | 4 (≈ 10.7 µM) | 1 (≈ 2.67 µM) | 0.5 (≈ 1.34 µM) |
| CCCCCCCCCCOCC(=O)c1c(O)c2cc(F)ccc2oc1=O [B019, 3-decyloxyacetyl-6-fluoro-4-hydroxycoumarin] | 256 (≈ 676 µM) | 256 (≈ 676 µM) | 256 (≈ 676 µM) | 256 (≈ 676 µM) | 256 (≈ 676 µM) | < 0.125 | < 0.125 | 256 (≈ 676 µM) | 256 (≈ 676 µM) | – | – | – | – | – | – | – |
| CCCCCCCCNC(=O)c1c(O)c2ccccc2oc1=O [B020, 3-(octylaminocarbonyl)-4-hydroxycoumarin] | 8 (≈ 25.2 µM) | 8 (≈ 25.2 µM) | 16 (≈ 50.4 µM) | 1 (≈ 3.15 µM) | 1 (≈ 3.15 µM) | 1 (≈ 3.15 µM) | 8 (≈ 25.2 µM) | 64 (≈ 202 µM) | 32 (≈ 101 µM) | – | – | – | – | – | – | – |
